Measured values reported in ChEMBL document CHEMBL3046820, “1,6-Bis[1-(2-chloro-5-thiazolylmethyl)-2-nitroiminoimidazolidin-3-yl]hexane and 1,3,5-tris[1-(6-chloronicotinyl)-2-nitroiminoimidazolidin-3-ylmethyl]benzeneSynthesis and insecticidal and neuroblocking activities in American cockroaches, Periplaneta americana” (2006).

Key:
Assay type in all cases: functional
Periplaneta americana [1] = assay: Insecticidal activity against adult male Periplaneta americana (American cockroach) dosed through injection into abdomen assessed as mortality measured 24 hr post dose pre-treated with 50 ug metabolic inhibitor PB and 50 ug NIA 1 hr before compound injection
Periplaneta americana [2] = assay: Insecticidal activity against adult male Periplaneta americana (American cockroach) dosed through injection into abdomen assessed as mortality measured 24 hr post dose
[3] = test system: Abdominal central nerve cord; assay: Neuroblocking activity in adult male Periplaneta americana (American cockroach) abdominal central nerve cords containing fifth and sixth ganglia assessed as neuroblocking concentration to supress frequncy below 10 counts/30 sec measured at 22 to 25 degC

Row | Structure (SMILES) | MLD (Periplaneta americana [1]) | MLD (Periplaneta americana [2]) | BC [3]
1 | O=[N+]([O-])/N=C1/N(CCCCCCN2CCN(Cc3cnc(Cl)s3)/C2=N/[N+](=O)[O-])CCN1Cc1cnc(Cl)s1 | 1.1 nmol | 8.9 nmol | –
2 | O=[N+]([O-])/N=C(/NCCCCCCN/C(=N\[N+](=O)[O-])NCc1ccc(Cl)nc1)NCc1ccc(Cl)nc1 | 25.7 nmol | >129 nmol | 26.3 µM
3 | O=[N+]([O-])/N=C(/NCCCCCCN/C(=N\[N+](=O)[O-])NCc1cnc(Cl)s1)NCc1cnc(Cl)s1 | 85.1 nmol | >134 nmol | 14.8 µM
4 | O=[N+]([O-])/N=C1\N(Cc2ccc(Cl)nc2)CCN1Cc1cccc(CN2CCN(Cc3ccc(Cl)nc3)/C2=N/[N+](=O)[O-])c1CN1CCN(Cc2ccc(Cl)nc2)/C1=N\[N+](=O)[O-] | 3.4 nmol | 34 nmol | 100 µM
5 | O=[N+]([O-])/N=C1\N(Cc2ccc(Cl)nc2)CCN1Cc1cccc(CN2CCN(Cc3ccc(Cl)nc3)/C2=N/[N+](=O)[O-])c1 | 1 nmol | 20 nmol | –
6 | O=[N+]([O-])/N=C1/N(CCCCCCN2CCN(Cc3ccc(Cl)nc3)/C2=N/[N+](=O)[O-])CCN1Cc1ccc(Cl)nc1 [Hexamethylene 1,6-bis-imadacloprid] | 0.29 nmol | 2.2 nmol | 3.7 µM
7 | O=[N+]([O-])/N=C1\NCCN1Cc1ccc(Cl)nc1 [IMIDACLOPRID] | 0.071 nmol | 1.1 nmol | 2.3 µM
